Experimental findings from patent US6399543B1, “Low foam N,N′-dialkyltartaramide wetting agents” (Air Products and Chemicals, Inc., priority 2001, dated 2002) are described below.

Common to all, as to assay type: physicochemical
The nature of data set [1]: Concentration of surfactant in filtered saturated solution in distilled water. As to conditions: shaken ~24 hours. Here is the method: (§1) Saturated solutions of the materials of Examples 1-9 in distilled water were prepared. After shaking the solutions for ˜24 hours, the undissolved material was removed via filtration. Equilibrium surface tension (EST) data were obtained using the Wilhelmy plate method. Equilibrium surface tension values between 65-72 dyne/cm are considered to be indicative of a lack of surface activity (i.e., a lack of surfactancy).

The nature of data set [2]: Equilibrium surface tension (EST), Wilhelmy plate method, saturated aqueous solutions. Particulars: for Limiting EST: saturated solution in distilled water, undissolved material filtered off, Wilhelmy plate. Here is the method: where R^1 and R^2 are C4 to C8 alkyl groups, and at least one of R^1 and R^2 is a branched C4 to C8 alkyl group. […] The Wilhelmy plate method of measuring surface tension is described in L. Wilhelmy's article in Ann. Phys. 1863, 119, 177, which is incorporated by reference.
as §1
The limiting surface tensions represent the lowest surface tensions in water which can be achieved for a given surfactant regardless of the amount of surfactant used and is used to evaluate the effectiveness of a surfactant. Lower surface tensions would allow for the elimination of defects upon application of a formulation onto low energy surfaces.

A short description of data set [3]: Foaming properties of aqueous solutions, procedure based upon ASTM D 1173-53. As to conditions: filtrate of aqueous mixture of the tartaramide; for Initial Foam: foam height at completion of addition. Here is the method:
The foaming properties of aqueous solutions of N,N′-di-iso-pentyl L-tartaramide (Ex 1), N,N′-di-2-ethylhexyl L-tartaramide (Ex 5) and two representative nonionic surfactants, a commercial nonylphenol 15 mole ethoxylate surfactant and a commercial C8 alkyl glucoside surfactant, were examined using a procedure based upon ASTM D 1173-53.
In this test, an aqueous mixture of the tartaramides was prepared, any undissolved solids were filtered off, and the filtrate was added from an elevated glass pipette to a glass receiver containing the same filtrate. Regarding the commercial materials, a 0.1 wt % solution of the surfactant was added from an elevated glass pipette to a glass receiver containing the same solution. The foam height was measured at the completion of the addition (“Initial Foam Height”) and the time required for the foam to dissipate at the air-liquid interface (“Time to 0 Foam”) was recorded. This test provides a comparison between the foaming characteristics of various surfactants. In general, in coatings, inks, adhesives, agricultural and electronics cleaning formulations, foam is undesirable because it complicates handling and can lead to coating and print defects, and to inefficient application of agricultural materials.

Bounds are passed on as bounds.

`CC(C)CCCC(C)NC(=O)C(O)C(O)C(=O)NC(C)CCCC(C)C` [Ex 3, N,N′-Di-1,5-dimethylhexyl L-tartaramide]: the “Concentration of Surfactant in Solution” value in data set [1] is recorded as less than 0.1 wt. %. In addition, in data set [2], the “Limiting EST” value is listed as 38.0 dyne/cm and the “lowering the equilibrium surface tension of water (in words)” value (shortened to “lowering the equilibrium surface tension”) is reported as “particularly effective”.
For the compound `CCCNC(=O)[C@H](O)[C@@H](O)C(=O)NCCC` [Ex 6, N,N′-Di-n-propyl L-tartaramide], the “Concentration of Surfactant in Solution” value in data set [1] was less than 1.0 wt. %. In addition, the “Limiting EST” value in data set [2] came out at 67.7 dyne/cm.
For `CCCCCCNC(=O)[C@H](O)[C@@H](O)C(=O)NCCCCCC` [Ex 8, N,N′-Di-n-hexyl L-tartaramide], in that order: less than 0.1 wt. % and 67.8 dyne/cm.
`CCCCCCC(C)NC(=O)C(O)C(O)C(=O)NC(C)CCCCCC` [Ex 2, N,N′-Di-1-methylheptyl L-tartaramide]: the “Concentration of Surfactant in Solution” value in data set [1] is listed as less than 0.1 wt. %. In addition, in data set [2], the “Limiting EST” value is 39.5 dyne/cm and the “lowering the equilibrium surface tension” value was “particularly effective”.
For the compound `CCCCC(CC)CNC(=O)C(O)C(O)C(=O)NCC(CC)CCCC` [Ex 5, N,N′-Di-2-ethylhexyl L-tartaramide], the “Concentration of Surfactant in Solution” value in data set [1] was less than 0.1 wt. %. Also, in data set [3], the “Foam after 5 min” value is given as 0 cm, the “Time to zero foam” value is “˜3 sec” and the “Initial Foam” value worked out at 1.5 cm. In data set [2], the “Limiting EST” value was determined as 41.4 dyne/cm and the “lowering the equilibrium surface tension” value was “particularly effective”.
For the compound `O=C(NC1CCCCC1)[C@H](O)[C@@H](O)C(=O)NC1CCCCC1` [Ex 9, N,N′-Di-cyclohexyl L-tartaramide], the “Concentration of Surfactant in Solution” value in data set [1] is given as less than 0.1 wt. %. The “Limiting EST” value in data set [2] came to 67.9 dyne/cm.
On to `CCCCCC(C)NC(=O)C(O)C(O)C(=O)NC(C)CCCCC` [Ex 4, N,N′-Di-1-methylhexyl L-tartaramide], for which, in data set [1], the “Concentration of Surfactant in Solution” value was less than 0.1 wt. %. Also, in data set [2], the “Limiting EST” value amounted to 41.5 dyne/cm and the “lowering the equilibrium surface tension” value is “particularly effective”.
As for `CCCCNC(=O)[C@H](O)[C@@H](O)C(=O)NCCCC` [Ex 7, N,N′-Di-n-butyl L-tartaramide], the “Concentration of Surfactant in Solution” value in data set [1] is reported as less than 1.0 wt. %. In addition, the “Limiting EST” value in data set [2] amounted to 65.0 dyne/cm.
Regarding `CC(C)CCNC(=O)[C@H](O)[C@@H](O)C(=O)NCCC(C)C` [Ex 1, N,N′-Di-iso-pentyl L-tartaramide], in data set [1], the “Concentration of Surfactant in Solution” value is recorded as less than 1.5 wt. %. In data set [3], the “Foam after 5 min” value came out at 0 cm, the “Time to zero foam” value is “≦5 sec” and the “Initial Foam” value worked out at 0.5 cm. The “Limiting EST” value in data set [2] was 48.0 dyne/cm.
